Measured values as given in ChEMBL document CHEMBL1138630, “Antioxidant activities of a new lignan and a neolignan from Saururus chinensis” (Bioorg Med Chem Lett, 2004).

Experiments:
Cell line [1] = assay: Effect of compound (0.1 uM) on macrophage-mediated oxidation of LDL was measured by MDA levels in the presence of Cu2+; format: functional, Homo sapiens
Cell line [2] = assay: Concentration required for inhibition of Cu+2-induced peroxidation in low-density lipoprotein of human; format: functional, cell-based
Cell line [3] = assay: Antioxidant activity on copper-induced peroxidation in low-density lipoprotein at 10 uM; expressed as area of absorbance/mm; format: functional, Homo sapiens
Cell line [4] = assay: Antioxidant activity on copper-induced peroxidation in low-density lipoprotein at 20 uM; expressed as area of absorbance/mm; format: functional, Homo sapiens
Cell line [5] = assay: Effect of compound (1 uM) on macrophage-mediated oxidation of LDL was measured by MDA levels in the presence of Cu2+; format: functional, Homo sapiens

| Compound | Activity (Cell line [1]) [nmol/mg LDL] | IC50 (Cell line [2]) [µM] | Activity (Cell line [3]) [AU/mm] | Activity (Cell line [4]) [AU/mm] | Activity (Cell line [5]) [nmol/mg LDL] |
| --- | --- | --- | --- | --- | --- |
| C/C=C/c1ccc(O[C@@H](C)[C@@H](O)c2ccc(O)c(OC)c2)c(OC)c1 [MACHILIN D] | 118.3 | 3.8 | 5.81 | 6.78 | – |
| CC(C)(Sc1cc(C(C)(C)C)c(O)c(C(C)(C)C)c1)Sc1cc(C(C)(C)C)c(O)c(C(C)(C)C)c1 [PROBUCOL] | – | 2.8 | 4.32 | 6.7 | 412.6 |
| COc1ccc(C[C@H](C)[C@@H](C)Cc2cc(OC)c(O)cc2O)cc1O | 358.9 | 3.3 | 6.45 | 7.66 | – |
